In patent US5814488A (priority 1993, dated 1998):
≈ marks a conversion by molar mass, not a printed value. Read-outs that look alike come from different tables or passages of the source.

Assays:
[1] = tested on: Staphylococcus epidermidis; assay: In vitro antibacterial activity against 1108 strains pathogenic bacteria (Table 4); type: cell-based; conditions: 27 strains
Staphylococcus arueus = assay: as above; type: cell-based; conditions: 190 strains
Streptococcus faecalis = assay: as above; type: cell-based; conditions: Enterococcus faecalis, 33 strains
Streptococcus pyogenes = assay: as above; type: cell-based; conditions: 27 strains
[2] = tested on: Methicillin resistant S. aureus; assay: as above; type: cell-based; conditions: Staphylococcus aureus, 53 strains
Escherichia coli = assay: Comparison of MIC and MBC (Tables 5 and 6); type: cell-based
Description: (§1) […]. […] […]

Klebsiella pneumoniae = assay: Comparison of MIC and MBC (Tables 5 and 6); type: cell-based
Description: as §1

Pseudomonas sp. = assay: Comparison of MIC and MBC (Tables 5 and 6); type: cell-based
Description: as §1

S. aureus = assay: Comparison of MIC and MBC (Tables 5 and 6); type: cell-based; conditions: S. aureus, 31 strains
Description: as §1

Shigella = assay: Comparison of MIC and MBC (Tables 5 and 6); type: cell-based
Description: as §1

bacteria infected mice = assay: In vivo therapeutic effect on bacteria infected mice; conditions: similar to those in vitro
[3] = Acute toxicity, Kunming mice; conditions: versus netilmicin and GM
[4] = Chronic toxicity, rat i.p. 90 days
[5] = Nephrotoxicity to rat after i.m. administration; conditions: gentamicin at 150 MKD and 100 MKD from seventh day
[6] = Table 5, 20 strains, read-out: MBC50
[7] = Table 5, 20 strains, read-out: MBC90
[8] = Table 6, 20 strains, unit assumed

CCNC1CC(N)C(OC2OC(CN)CCC2N)C(O)C1OC1OCC(C)(O)C(NC)C1O (stereo not drawn)
MIC50 [1]: 0.31 mg/L (≈ 0.649 µM) | MIC90 [1]: 1 mg/L (≈ 2.09 µM) | MIC ([1]; read-out: MIC range): 0.031 to 16 mg/L (≈ 0.0649 to 33.5 µM) | MIC ([1]; read-out: Mode MIC): 0.031 mg/L (≈ 0.0649 µM) | MIC50 (Staphylococcus arueus): 1 mg/L (≈ 2.09 µM) | MIC90 (Staphylococcus arueus): 16 mg/L (≈ 33.5 µM) | MIC range (Staphylococcus arueus; in µg/mL (unit assumed)): 0.031-128 | MIC (Staphylococcus arueus; read-out: Mode MIC): 0.062 mg/L (≈ 0.13 µM) | MIC50 (Streptococcus faecalis): 32 mg/L (≈ 67 µM) | MIC90 (Streptococcus faecalis): 256 mg/L (≈ 536 µM) | MIC (Streptococcus faecalis; read-out: MIC range): 0.5 to 256 mg/L (≈ 1.05 to 536 µM) | MIC (Streptococcus faecalis; read-out: Mode MIC): 1 mg/L (≈ 2.09 µM) | MIC50 (Streptococcus pyogenes): 1 mg/L (≈ 2.09 µM) | MIC90 (Streptococcus pyogenes): 32 mg/L (≈ 67 µM) | MIC (Streptococcus pyogenes; read-out: MIC range): 0.25 to 128 mg/L (≈ 0.523 to 268 µM) | MIC (Streptococcus pyogenes; read-out: Mode MIC): 1 mg/L (≈ 2.09 µM) | MIC50 [2]: 8 mg/L (≈ 16.8 µM) | MIC90 [2]: 32 mg/L (≈ 67 µM) | MIC ([2]; read-out: MIC range): 0.5 to 128 mg/L (≈ 1.05 to 268 µM) | MIC ([2]; read-out: Mode MIC): 8 mg/L (≈ 16.8 µM) | MIC50 (Escherichia coli): 0.125 mg/L (≈ 0.262 µM) | MBC (Escherichia coli; [6]): 0.25 mg/L (≈ 0.523 µM) | MBC (Escherichia coli; [7]): 1 mg/L (≈ 2.09 µM) | MIC90 (Escherichia coli; Table 5, 20 strains, read-out: MIC90): 0.5 mg/L (≈ 1.05 µM) | MBC90 (Escherichia coli; [8]): 1 mg/L (≈ 2.09 µM) | MBC (Escherichia coli; read-out: MBC range): 0.125 to 8 mg/L (≈ 0.262 to 16.8 µM) | MIC50 (Klebsiella pneumoniae): 0.125 mg/L (≈ 0.262 µM) | MIC90 (Klebsiella pneumoniae): 0.125 mg/L (≈ 0.262 µM) | MBC (Klebsiella pneumoniae; [6]): 0.25 mg/L (≈ 0.523 µM) | MBC (Klebsiella pneumoniae; [7]): 0.5 mg/L (≈ 1.05 µM) | MBC (Klebsiella pneumoniae; Table 6, 20 strains, read-out: MBC range): 0.062 to 1 mg/L (≈ 0.13 to 2.09 µM) | MBC90 (Klebsiella pneumoniae; [8]): 0.5 mg/L (≈ 1.05 µM) | MIC50 (Pseudomonas sp.; Pseudomonas): 1 mg/L (≈ 2.09 µM) | MIC90 (Pseudomonas sp.; Pseudomonas): 4 mg/L (≈ 8.38 µM) | MBC (Pseudomonas sp.; Pseudomonas, read-out: MBC50): 2 mg/L (≈ 4.19 µM) | MBC (Pseudomonas sp.; Pseudomonas, read-out: MBC90): 8 mg/L (≈ 16.8 µM) | MBC (Pseudomonas sp.; Table 6, Pseudomonas sp., 20 strains, read-out: MBC range): 0.25 to 16 mg/L (≈ 0.523 to 33.5 µM) | MBC90 (Pseudomonas sp.; Table 6, Pseudomonas sp., 20 strains, unit assumed): 8 mg/L (≈ 16.8 µM) | MBC (S. aureus; Staphylococcus aureus, Table 5, read-out: MBC50): 0.5 mg/L (≈ 1.05 µM) | MBC (S. aureus; Staphylococcus aureus, Table 5, read-out: MBC90): 2 mg/L (≈ 4.19 µM) | MIC50 (S. aureus; Staphylococcus aureus, Table 5, read-out: MIC50): 0.062 mg/L (≈ 0.13 µM) | MIC90 (S. aureus; Staphylococcus aureus, Table 5, read-out: MIC90): 0.25 mg/L (≈ 0.523 µM) | MBC (S. aureus; Staphylococcus aureus, Table 6, read-out: MBC range): 0.062 to 4 mg/L (≈ 0.13 to 8.38 µM) | MBC90 (S. aureus; Table 6, unit assumed): 2 mg/L (≈ 4.19 µM) | MIC50 (Shigella; Table 5, 10 strains): 0.062 mg/L (≈ 0.13 µM) | MBC (Shigella; Table 5, 10 strains, read-out: MBC50): 0.5 mg/L (≈ 1.05 µM) | MBC (Shigella; Table 5, 10 strains, read-out: MBC90): 1 mg/L (≈ 2.09 µM) | MIC90 (Shigella; Table 5, 10 strains, read-out: MIC90): 0.125 mg/L (≈ 0.262 µM) | MBC (Shigella; Table 6, 10 strains, read-out: MBC range): 0.125 to 1 mg/L (≈ 0.262 to 2.09 µM) | MBC90 (Shigella; Table 6, 10 strains, unit assumed): 1 mg/L (≈ 2.09 µM) | inhibitive and germicide activities in vivo (bacteria infected mice): high inhibitive activities and germicide activities in vivo which are similar to those in vitro | acute toxicity, comparison [3]: lower than that of netilmicin obviously and similar to that of GM | chronic toxicity, comparison with MCR [4]: not greater than that of MCR | dead animals [5]: no dead
